# Columns and labels:
# [1] = Half life after oral dosing in rats; format: ADME, organism-based; settings: rat, in vivo
# Homo sapiens = species: Homo sapiens; experiment: Tested for the inhibition of leukotriene biosynthesis in human whole blood; format: functional
half-life [1] [h],IC50 (Homo sapiens) [nM],SMILES
1.5,90,NC(=O)N(O)C/C=C/c1cccc(Oc2ccccc2)c1
3.6,230,NC(=O)N(O)CCNC(=O)c1cccc(Oc2ccccc2)c1

# Reference: ChEMBL document CHEMBL1152010, “Synthesis of new amide-linked N-hydroxyurea 5-lipoxygenase inhibitors by an intramolecular oxygen to nitrogen acyl transfer” (Bioorg Med Chem Lett, 1993)
